Test results: US9546157B2, “Asymmetric piperidinyl-substituted ureas as medicines” (Helsinn Healthcare SA, priority 2014, dated 2017)

Legend:
GHSR1a [1] = biological target: T1, GHSR1a (Homo sapiens, UniProt Q92847); experiment: Calcium FLIPR assay, GHSR-1a antagonism (reduction of ghrelin response); type: cell-based; settings: HEK293/GHSR1a cells, ghrelin 10 nM
T1 construct: expressed in transfected cells; host or cells: HEK293
Summary of the method: (§1)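 Calcium dye-loaded HEK293/GHSR1a cells were monitored by FLIPR fluorescence for 2 min after additions at t=20 s. For antagonist mode, compound was co-added with ghrelin (10 nM) and scored by lowering the ghrelin signal. Agonist mode added compound alone; EC50 and IC50 came from dose-response data.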

GHSR1a [2] = biological target: T1, GHSR1a; experiment: Calcium FLIPR assay, GHSR-1a agonism; type: cell-based; parameters: Emax: unit not given here; settings: HEK293/GHSR1a cells
Summary of the method: as §1

T1 sequence (Q92847 whole entry): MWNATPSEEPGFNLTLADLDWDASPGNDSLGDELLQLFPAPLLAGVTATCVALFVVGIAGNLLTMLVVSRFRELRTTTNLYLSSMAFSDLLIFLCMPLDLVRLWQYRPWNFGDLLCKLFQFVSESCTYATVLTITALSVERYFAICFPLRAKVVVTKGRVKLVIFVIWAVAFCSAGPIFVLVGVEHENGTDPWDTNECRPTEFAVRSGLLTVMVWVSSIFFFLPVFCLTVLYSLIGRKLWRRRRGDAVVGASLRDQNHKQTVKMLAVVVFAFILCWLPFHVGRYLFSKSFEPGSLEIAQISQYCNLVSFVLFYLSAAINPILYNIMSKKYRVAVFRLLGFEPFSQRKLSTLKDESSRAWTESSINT

IC50 (GHSR1a [1]) [nM] | EC50 (GHSR1a [2]) [nM] | Emax (GHSR1a [2]) | Compound
202 | > 30000 | – | CC(NC(=O)N(C)C1CCN(C)CC1)c1ccc(C#Cc2ccccn2)c(Cl)c1Cl (stereo not shown) [Compound H0734, 3-(1-(2,3-dichloro-4-(pyridin-2-ylethynyl)phenyl)ethyl)-1-methyl-1-(1-methylpiperidin-4-yl)urea]
1300 | > 30000 | – | CC(NC(=O)N(C)C1CCN(C)CC1)c1ccc(-c2cnc(F)nc2)c(Cl)c1Cl (stereo not shown) [Compound H0800, 3-(1-(2,3-dichloro-4-(2-fluoropyrimidin-5-yl)phenyl)ethyl)-1-methyl-1-(1-methylpiperidin-4-yl)urea]
8 | > 30000 | – | CC(NC(=O)N(C)C1CCN(C)CC1)c1ccc(C#C[Si](C)(C)C)c(Cl)c1Cl (stereo not shown) [Compound H0602, 3-(1-(2,3-dichloro-4-((trimethylsilyl)ethynyl)phenyl)ethyl)-1-methyl-1-(1-methylpiperidin-4-yl)urea]
> 1000 | > 30000 | – | CN1CCC(N(C)C(=O)NC2(c3ccc(-c4cncnc4)c(Cl)c3Cl)CC2)CC1 [Compound H0673, 3-(1-(2,3-dichloro-4-(pyrimidin-5-yl)phenyl)cyclopropyl)-1-methyl-1-(1-methylpiperidin-4-yl)urea]
22 | 83 | 2660 | CC(NC(=O)N(C)C1CCN(C)CC1)c1ccc(CCCO)c(Cl)c1Cl (stereo not shown) [Compound H0643, 3-(1-(2,3-dichloro-4-(3-hydroxypropyl)phenyl)ethyl)-1-methyl-1-(1-methylpiperidin-4-yl)urea]
3 | 7 | 3569 | CC(NC(=O)N(C)C1CCN(C)CC1)c1ccc(NC(=O)c2cccs2)c(Cl)c1Cl (stereo not shown) [Compound H0772, N-(2,3-dichloro-4-(1-(3-methyl-3-(1-methylpiperidin-4-yl)ureido)ethyl)phenyl)thiophene-2-carboxamide]
6200 | > 30000 | – | CC(NC(=O)N(C)C1CCN(C)CC1)c1ccc(-c2cnc(C(N)=O)cn2)c(Cl)c1Cl (stereo not shown) [Compound H0760]
855 | 242 | 980 | CC(NC(=O)N(C)C1CCN(C)CC1)c1ccc(-c2cncc(CCl)n2)c(Cl)c1Cl (stereo not shown) [Compound H0786, 3-(1-(2,3-dichloro-4-(6-(chloromethyl)pyrazin-2-yl)phenyl)ethyl)-1-methyl-1-(1-methylpiperidin-4-yl)urea]
719 | > 30000 | – | CN1CCC(N(C)C(=O)NC(C#N)c2ccc(-c3cncnc3)c(Cl)c2Cl)CC1 (stereo not shown) [Compound H0631, 3-(cyano(2,3-dichloro-4-(pyrimidin-5-yl)phenyl)methyl)-1-methyl-1-(1-methylpiperidin-4-yl)urea]
> 1000 | > 30000 | – | CC(NC(=O)N(C)C1CCN(C)CC1)c1ccc(-c2ccc(C(=O)O)s2)c(Cl)c1Cl (stereo not shown) [Compound H0689, 5-(2,3-dichloro-4-(1-(3-methyl-3-(1-methylpiperidin-4-yl)ureido)ethyl)phenyl)thiophene-2-carboxylic acid]
57 | 97 | 2391 | C#Cc1ccc(C(C)NC(=O)N(O)C2CCN(C)CC2)c(Cl)c1Cl (stereo not shown) [Compound H0745, 3-(1-(2,3-dichloro-4-ethynylphenyl)ethyl)-1-hydroxy-1-(1-methylpiperidin-4-yl)urea]
674 | 90 | 1494 | Cc1cc(-c2ccc(C(C)NC(=O)N(C)C3CCN(C)CC3)c(Cl)c2Cl)ncn1 (stereo not shown) [Compound H0808, 3-(1-(2,3-dichloro-4-(6-methylpyrimidin-4-yl)phenyl)ethyl)-1-methyl-1-(1-methylpiperidin-4-yl)urea]
60 | > 30000 | – | CC(NC(=O)N(C)C1CCN(C)CC1)c1ccc(C#Cc2cncnc2)c(Cl)c1Cl (stereo not shown) [Compound H0753, 3-(1-(2,3-dichloro-4-(pyrimidin-5-ylethynyl)phenyl)ethyl)-1-methyl-1-(1-methylpiperidin-4-yl)urea]
